Where “and” joins values, the source holds several entries; their conditions need not be identical. Equal values may be shown once.
Assay: Particle size measurement of milled material (Malvern Mastersizer S laser diffraction)
Assay type: physicochemical
[1] = Example 1 (comparative), feedstock, individual samples
[2] = Example 1 (comparative), feedstock
[3] = Example 1 (comparative), micronised in a single process, composite
[4] = Example 1 (comparative), micronised in a single process, individual samples
[5] = Example 2 (comparative), feedstock, individual samples
[6] = Example 2 (comparative), feedstock
[7] = Example 2 (comparative), micronised in a single process, composite
[8] = Example 2 (comparative), micronised in a single process, individual samples
[9] = Example 3 (comparative), feedstock
[10] = Example 3 (comparative), micronised in a single process, composite
[11] = Example 3 (comparative), micronised in a single process, individual samples
[12] = Example 4, micronised first pass
[13] = Example 4, micronised second pass

D[v, 0.5] [1]: 47.04 μm and 47.77 μm | D[v, 0.9] [1]: 98.61 μm and 101.96 μm | D[v, 0.5] mean [2]: 47.41 μm | D[v, 0.9] mean [2]: 100.29 μm | D[v, 0.5] composite (average) [3]: 15.27 μm | D[v, 0.9] composite (average) [3]: 53.30 μm | D[v, 0.5] [5]: 47.04 μm and 47.77 μm | D[v, 0.9] [5]: 98.61 μm and 101.96 μm | D[v, 0.5] mean [6]: 47.41 μm | D[v, 0.9] mean [6]: 100.29 μm | D[v, 0.5] composite (average) [7]: 5.95 μm | D[v, 0.9] composite (average) [7]: 30.47 μm | D[v, 0.5] [9]: 73.33 μm | D[v, 0.9] [9]: 323.50 μm | D[v, 0.5] composite [10]: 13.79 μm | D[v, 0.9] composite (average) [10]: 33.14 μm | D[v, 0.5] mean (Example 4, initial feedstock): 65.06 μm | D[v, 0.9] mean (Example 4, initial feedstock): 177.81 μm | D[v, 0.5] mean [12]: 33.89 μm | D[v, 0.9] mean [12]: 78.22 μm | D[v, 0.5] mean [13]: 16.30 μm | D[v, 0.9] mean [13]: 37.22 μm
Compound: NC(=O)N1c2ccccc2CC(=O)c2ccccc21 [Oxcarbazepine]
D[v, 0.5] [4]: 15.02 μm and 15.18 μm and 15.16 μm and 25.41 μm and 10.36 μm | D[v, 0.9] [4]: 52.08 μm and 51.71 μm and 51.94 μm and 67.97 μm and 44.13 μm | D[v, 0.5] [8]: 3.84 μm and 6.09 μm and 2.15 μm and 4.91 μm | D[v, 0.9] [8]: 19.56 μm and 31.90 μm and 11.56 μm and 27.25 μm | D[v, 0.5] [11]: 7.50 μm and 19.51 μm and 15.09 μm and 15.64 μm | D[v, 0.9] [11]: 16.47 μm and 44.34 μm and 34.47 μm and 35.78 μm
